Key:
[1] = in vivo
normal growing eye = experiment: Effect of rosiglitazone on normal chick eyes; format: in vivo; settings: 5 mM, 10 μL intravitreal injection once a day for 3 days, two time points (FIG. 2)
[2] = system: lens-induced myopia (LIM) chick eyes; experiment: Lens-induced myopia (LIM) in chicks, axial length by ultrasonic A-scan; format: in vivo
Method: (§1) Chicks age day 7 are divided into 2 groups, lens-induced myopia (LIM) and age-matched control (CTL), randomly. Chick eyes are measured with ultrasonic A-scan and refractive index by retinoscope by a single-masked operator. A computer-controlled randomization is applied to assign either left or right eye for LIM treatment and contralateral eye served as untouch control. Baseline physiological data is acquired on day 7. Purified rosiglitazone (>99%) is purchased from manufacturer and dissolved in 100% Dimethyl sulfoxide (DMSO). A working rosiglitazone solution is prepared in the concentration of 5 mM in 2% DMSO, PBS solution prior use. The rosiglitazone (5 mM, 10 μL) is delivered by intravitreal injection in the LIM eye once a day for 3 consecutive days. A-10 D lens is applied soon after drug delivery. Chick eyes are measured again on day 10 to access the effect of rosiglitazone.
as §1, with “Further, the effect of rosiglitazone in lower dosages is also investigated. Briefly, chicks age” for “Chicks age”, “into 3” for “into 2”, “myopia with higher dosage (LIM with 1 mM, n=7), lens-induced myopia with lower dosage (LIM with 0.2 mM, n=7)” for “myopia (LIM)”, “control (CTL, n=2),” for “control (CTL),”, “as untouched” for “as untouch”, “rosiglitazone (1 mM, 10 μL or 0.2” for “rosiglitazone (5”
Referring to FIG. 1, the rosiglitazone treatment has shown a consistent effect on slowing myopia progression by an average of 65% using different batches of chicks when compared to independent age-matched chicks subjected to LIM treatment. The effect of myopia inhibition is reduced with dose with an exponential regression of y=1.14e^−0.57x, R^2=1) to 37% of inhibition in 1 mM drug and 21% of inhibition in 0.2 mM drug treatment group.

For CN(CCOc1ccc(CC2SC(=O)NC2=O)cc1)c1ccccn1 (stereo not drawn) [rosiglitazone], the “toxicity in animal models” value [1] was “no sign of toxicity”, the “effect on normal growing eye or inducing hyperopia in naked eye” value (normal growing eye) was “no statistically significant effect” and the “inhibition of myopia (axial length)” value ([2]; 0.2 mM, 10 μL intravitreal injection once a day for 3 days, -10 D lens, measured day 10) was 21%. For the same compound, the “inhibition of myopia (axial length)” value ([2]; 1 mM, 10 μL intravitreal injection once a day for 3 days, -10 D lens, measured day 10) was 37%, the “slowing myopia progression (axial length), inhibition vs age-matched LIM chicks” value ([2]; 5 mM, 10 μL intravitreal injection once a day for 3 days, -10 D lens, measured day 10, average over different batches of chicks) was 65% and the “suppression of axial length growth” value ([2]; dose-dependent, summary statement, dose not given) was 65%.
